Results reported in patent US5324708A, “Non-hygroscopic monoammonium salts of phosphonic and phosphinic acids” (Aklaloida Vegyeszeti Gyar Rt., priority 1991, dated 1994).
Counter-ions that a name gives are not always drawn. Like-named read-outs stand apart in the source and are kept apart here.

Assays:
[1] = Water solubility of products (in words); assay type: physicochemical
[2] = Hygroscopicity of products (in words); assay type: physicochemical; conditions: product of the example
Protocol: "Non-hygroscopic" according to our invention means, that when exposed at 25° C. to an environment containing 60% humidity no observable uptake of water takes place within 3 weeks or this uptake is less than 0.1%. The salts are crystalline, they have melting point ranges that are different from those published before and their water-solubility is somewhat increased as compared with the salts prepared with the known methods.

[3] = Solubility tests, N-(phosphonomethyl)-glycine and its salts (Table IV); assay type: physicochemical
Text: Table IV illustrates some solubility values of the mono-isopropylammonium salts and di-isopropylammonium salts of N-(phosphonomethyl)-glycine on the basis of which the processes according to our invention can be reduced to practice. All solvents or solvent-mixtures can be used for our processes which show a reasonable solubility--difference between the salts and products that have to be separated.

[4] = Uptake of humidity in open containers at 60% humidity and 25° C. (Table VI); assay type: physicochemical; conditions: 60% humidity
Protocol: The samples were investigated in open containers, at 60% humidity and 25° C.

[5] = according to prior publications; cited from earlier work

## O=C(O)CNCP(=O)(O)O [I.8, mono-isopropylammoniumsalt of N-(phosphonomethyl)-glycine]
[1]
  solubility in water (in words): readily soluble
[2]
  hygroscopicity (in words): non-hygroscopic

## O=C(O)CNCP(=O)(O)O [Example I.2, mono-isopropylammonium salt of N-(phosphonomethyl)-glycine]
[1]
  solubility in water (in words): readily soluble
[2]
  hygroscopicity (in words): not hygroscopic

## O=C(O)CNCP(=O)(O)O [mono-IPA salt, mono-isopropylammonium salt of N-(phosphonomethyl)-glycine]
[3]; benzene
  SOLUBILITY: < 0.1 g/L
[3]; benzyl-alcohol
  SOLUBILITY: 0.5 g/L
[3]; dimethyl-formamide
  SOLUBILITY: 1.8 g/L
[3]; isopropyl amine
  SOLUBILITY: < 0.1 g/L
[3]; methanol
  SOLUBILITY: 56 g/L
[3]; n-butanol
  SOLUBILITY: 0.1 g/L
[3]; n-propanol
  SOLUBILITY: 0.7 g/L
[3]; propylene-glycol
  SOLUBILITY: 184.0 g/L
[3]; water
  SOLUBILITY: 1470 g/L
[4]; 1 day
  Uptake of humidity: 0.1%
[4]; 2 days
  Uptake of humidity: 0.1%
[4]; 7 days
  Uptake of humidity: 0.1%
[4]; 14 days
  Uptake of humidity: 0.1%
[4]; 30 days
  Uptake of humidity: 0.1%
[4]; 90 days
  Uptake of humidity: 0.1%
[4]; after 30 days
  Appearance: unchanged
[5]
  hygroscopicity (in words): extreme hygroscopic nature

## O=C(O)CNCP(=O)(O)O [I.22, mono-isopropylammonium salt of N-(phosphonomethyl)-glycine]
[1]
  solubility in water (in words): readily soluble
[2]
  hygroscopicity (in words): non-hygroscopic

## O=C(O)CNCP(=O)(O)O [Example I.1, mono-isopropylammonium salt of N-(phosphonomethyl)-glycine]
[1]
  solubility in water (in words): readily soluble
[2]
  hygroscopicity (in words): not hygroscopic

## O=C(O)CNCP(=O)(O)O [I.14, mono-isopropylammonium salt of N-(phosphonomethyl)-glycine]
[1]
  solubility in water (in words): readily soluble
[2]
  hygroscopicity (in words): non-hygroscopic

## O=C(O)CNCP(=O)(O)O [I.7, mono-isopropylammonium salt of N-(phosphonomethyl)-glycine]
[2]
  hygroscopicity (in words): non-hygroscopic

## CP(=O)(O)CCC(N)C(=O)O (stereo not shown) [I.10, mono-isopropylammoniumsalt of (3-amino-3-carboxy-propyl)-methane-phosphinic acid]
[2]
  hygroscopicity (in words): non-hygroscopic

## O=C(O)CNCP(=O)(O)O [Example I.12, mono-isopropylammmonium salt of N-(phosphonomethyl)-glycine]
[1]
  solubility in water (in words): readily soluble
[2]
  hygroscopicity (in words): non-hygroscopic

## O=C(O)CNCP(=O)(O)O [I.16, mono-isopropylammonium salt of N-(phosphonomethyl)-glycine]
[1]
  solubility in water (in words): readily soluble
[2]
  hygroscopicity (in words): non-hygroscopic

## O=C(O)CNCP(=O)(O)O [I.19, mono-ethylammonium salt of N-(phosphonomethyl)-glycine]
[1]
  solubility in water (in words): readily soluble
[2]
  hygroscopicity (in words): non-hygroscopic

## O=C(O)CNCP(=O)(O)O [Example I.24, mono-isopropylammonium salt of N-(phosphonomethyl)-glycine]
[1]
  solubility in water (in words): readily soluble
[2]
  hygroscopicity (in words): non-hygroscopic

## O=C(O)CNCP(=O)(O)O [I.25, mono-isopropylammonium salt of N-(phosphonomethyl)-glycine]
[1]
  solubility in water (in words): readily soluble
[2]
  hygroscopicity (in words): non-hygroscopic

## CP(=O)(O)CCC(N)C(=O)O (stereo not shown) [mono-ammonium salt, (3-amino-3-carboxy-propyl)-methane-phosphinic acid ammonium salt]
[5]
  hygroscopicity (in words): hygroscopic

## O=C(O)CNCP(=O)(O)O [glyphosate, N-(phosphonomethyl)-glycine]
[3]; benzene
  SOLUBILITY: < 0.1 g/L
[3]; benzyl-alcohol
  SOLUBILITY: < 0.2 g/L
[3]; dimethyl-formamide
  SOLUBILITY: < 0.2 g/L
[3]; ethanol
  SOLUBILITY: 0.2 g/L
[3]; isopropanol
  SOLUBILITY: < 0.5 g/L
[3]; methanol
  SOLUBILITY: < 0.3 g/L
[3]; n-propanol
  SOLUBILITY: < 0.5 g/L
[3]; water
  SOLUBILITY: 12 g/L

## O=C(O)CNCP(=O)(O)O [I.21, mono-isopropylammonium salt of N-(phosphonomethyl)-glycine]
[1]
  solubility in water (in words): readily soluble
[2]
  hygroscopicity (in words): non-hygroscopic

## O=C(O)CNCP(=O)(O)O [I.23, mono-isoptopylammonium salt of N-(phosphonomethyl)-glycine]
[1]
  solubility in water (in words): readily soluble
[2]
  hygroscopicity (in words): non-hygroscopic

## O=C(O)CNCP(=O)(O)O [Example I.15, mono-isopropylammonium salt of N-(phosphonomethyl)-glycine]
[1]
  solubility in water (in words): readily soluble
[2]
  hygroscopicity (in words): non-hygroscopic

## O=C(O)CNCP(=O)(O)O [Example I.18, mono-(dimethyl-ammonium)-salt of N-(phosphonomethyl)-glycine]
[1]
  solubility in water (in words): readily soluble
[2]
  hygroscopicity (in words): non-hygroscopic

## O=C(O)CNCP(=O)(O)O [Example I.20, mono-isopropylammonium salt of N-(phosphonomethyl)-glycine]
[1]
  solubility in water (in words): readily soluble
[2]
  hygroscopicity (in words): non-hygroscopic

## O=C(O)CNCP(=O)(O)O [I.13, mono-isopropylammmonium salt of N-(phosphonomethyl)-glycine]
[1]
  solubility in water (in words): readily soluble
[2]
  hygroscopicity (in words): non-hygroscopic

## O=C(O)CNCP(=O)(O)O [I.26, mono-isopropylammonium salt of N-(phosphonomethyl)-glycine]
[1]
  solubility in water (in words): readily soluble
[2]
  hygroscopicity (in words): non-hygroscopic

## O=C(O)CNCP(=O)(O)O [di-IPA salt, di-(mono-isopropylamine)-salt of N-(phosphonomethyl)-glycine]
[3]; benzene
  SOLUBILITY: < 0.1 g/L
[3]; benzyl-alcohol
  SOLUBILITY: 420 g/L
[3]; dimethyl-formamide
  SOLUBILITY: 22 g/L
[3]; isopropyl amine
  SOLUBILITY: < 0.1 g/L
[3]; methanol
  SOLUBILITY: 570 g/L
[3]; n-butanol
  SOLUBILITY: 35 g/L
[3]; n-propanol
  SOLUBILITY: 170 g/L
[3]; propylene-glycol
  SOLUBILITY: 244 g/L
[4]; 1 day, listed as di-isopropyl-ammonium salt of N-(phosphonomethyl)-glycine
  Uptake of humidity: 13.0%
[4]; 2 days, listed as di-isopropyl-ammonium salt of N-(phosphonomethyl)-glycine
  Uptake of humidity: 14.5%
[4]; 7 days, listed as di-isopropyl-ammonium salt of N-(phosphonomethyl)-glycine
  Uptake of humidity: 16.1%
[4]; 14 days, listed as di-isopropyl-ammonium salt of N-(phosphonomethyl)-glycine
  Uptake of humidity: 18.8%
[4]; 30 days, listed as di-isopropyl-ammonium salt of N-(phosphonomethyl)-glycine
  Uptake of humidity: 19.2%
[4]; 90 days, listed as di-isopropyl-ammonium salt of N-(phosphonomethyl)-glycine
  Uptake of humidity: 30.9%
[4]; within 1 day
  Appearance: sticky and hygroscopic
[4]; within 4 days
  Appearance: completely liquid
[1]
  solubility in water (in words): readily soluble

## O=C(O)CNCP(=O)(O)O [I.17, mono-isopropylammonium salt of N-(phosphonomethyl)-glycine]
[1]
  solubility in water (in words): readily soluble
[2]
  hygroscopicity (in words): non-hygroscopic

## CP(=O)(O)CCC(N)C(=O)O (stereo not shown) [I.9, mono-isopropylammoniumsalt of (3-amino-3-carboxy-propyl)-methane-phosphinic acid]
[2]
  hygroscopicity (in words): non-hygroscopic
